# Measured values taken from patent publication US10681909B2, “Herbicidal triazoles” (FMC Corporation, priority 2014, dated 2020).
# Tests used:
# foxtail, giant [1] = assay: Test A preemergence; format: in vivo, Setaria faberii; conditions: 0 to 100 scale (0 no effect, 100 complete control)
# In short: (§1)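 Test chemicals in a non-phytotoxic solvent with surfactant were applied as a directed soil spray preemergence to seeds sown in loam/sand. Postemergence sprays went to plants 2–10 cm tall at the one- to two-leaf stage. A dash means no result.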
# pigweed [2] = assay: Test A preemergence; format: in vivo, Amaranthus retroflexus; conditions: 0 to 100 scale (0 no effect, 100 complete control)
# In short: as §1
# barnyardgrass [3] = assay: Test A preemergence; format: in vivo, Echinochloa crus-galli; conditions: 0 to 100 scale (0 no effect, 100 complete control)
# In short: as §1
# foxtail, giant [4] = assay: Test A postemergence; format: in vivo, Setaria faberii; conditions: 0 to 100 scale (0 no effect, 100 complete control), approx. 10 d
# In short: as §1
# corn [5] = assay: Test A postemergence; format: in vivo, Zea mays; conditions: 0 to 100 scale (0 no effect, 100 complete control), approx. 10 d
# In short: as §1
# wheat [6] = assay: Test A postemergence; format: in vivo, Triticum aestivum; conditions: 0 to 100 scale (0 no effect, 100 complete control), approx. 10 d
# In short: as §1
# barnyardgrass [7] = assay: Test B flooded paddy test; format: in vivo, Echinochloa crus-galli; conditions: 125 g ai/ha, applied to paddy water at 2-leaf stage, visual rating after 13 to 15 d, scale 0 (no effect) to 100 (complete control)
# From the text: (§2) At time of treatment, test pots were flooded to 3 cm above the soil surface, treated by application of test compounds directly to the paddy water, and then maintained at that water depth for the duration of the test. Treated plants and controls were maintained in a greenhouse for 13 to 15 d, after which time all species were compared to controls and visually evaluated. […] A dash (-) response means no test result.
# ducksalad = assay: Test B flooded paddy test; format: in vivo, Heteranthera limosa; conditions: 125 g ai/ha, applied to paddy water at 2-leaf stage, visual rating after 13 to 15 d, scale 0 (no effect) to 100 (complete control)
# From the text: as §2
# barnyardgrass [8] = assay: Test A postemergence; format: in vivo, Echinochloa crus-galli; conditions: 0 to 100 scale (0 no effect, 100 complete control), approx. 10 d
# In short: as §1
# morningglory [9] = assay: Test A preemergence; format: in vivo, Ipomoea spp.; conditions: 0 to 100 scale (0 no effect, 100 complete control)
# From the text: (§3) Seeds of plant species selected from barnyardgrass (Echinochloa crus-galli), crabgrass, large (large crabgrass, Digitaria sanguinalis), kochia (Kochia scoparia), ragweed (common ragweed, Ambrosia elatior), foxtail, giant (giant foxtail, Setaria faberii), morningglory (Ipomoea spp.), pigweed (Amaranthus retroflexus), velvetleaf (Abutilon theophrasti), ryegrass, Italian (Italian ryegrass, Lolium multiflorum), wheat (Triticum aestivum), and corn (Zea mays) were planted into a blend of loam soil and sand and treated preemergence with a directed soil spray using test chemicals formulated in a non-phytotoxic solvent mixture which included a surfactant. At the same time, plants selected from these crop and weed species and also blackgrass (Alopecurus myosuroides), and galium (catchweed bedstraw, Galium aparine), were planted in pots containing the same blend of loam soil and sand and treated with postemergence applications of test chemicals formulated in the same manner. Plants ranged in height from 2 to 10 cm and were in the one- to two-leaf stage for the postemergence treatment. […] A dash (-) response means no test result.
# crabgrass, large [10] = assay: Test A postemergence; format: in vivo, Digitaria sanguinalis; conditions: 0 to 100 scale (0 no effect, 100 complete control), approx. 10 d
# From the text: as §3
# wheat [11] = assay: Test A preemergence; format: in vivo, Triticum aestivum; conditions: 0 to 100 scale (0 no effect, 100 complete control)
# From the text: as §3
# morningglory [12] = assay: Test A postemergence; format: in vivo, Ipomoea spp.; conditions: 0 to 100 scale (0 no effect, 100 complete control), approx. 10 d
# From the text: as §3
# crabgrass, large [13] = assay: Test A preemergence; format: in vivo, Digitaria sanguinalis; conditions: 0 to 100 scale (0 no effect, 100 complete control)
# From the text: as §3
# pigweed [14] = assay: Test A postemergence; format: in vivo, Amaranthus retroflexus; conditions: 0 to 100 scale (0 no effect, 100 complete control), approx. 10 d
# In short: as §1
# corn [15] = assay: Test A preemergence; format: in vivo, Zea mays; conditions: 0 to 100 scale (0 no effect, 100 complete control)
# From the text: as §3
# velvetleaf [16] = assay: Test A postemergence; format: in vivo, Abutilon theophrasti; conditions: 0 to 100 scale (0 no effect, 100 complete control), approx. 10 d
# From the text: as §3
# velvetleaf [17] = assay: Test A preemergence; format: in vivo, Abutilon theophrasti; conditions: 0 to 100 scale (0 no effect, 100 complete control)
# From the text: as §3
# sedge, umbrella = assay: Test B flooded paddy test; format: in vivo, Cyperus difformis; conditions: 125 g ai/ha, applied to paddy water at 2-leaf stage, visual rating after 13 to 15 d, scale 0 (no effect) to 100 (complete control)
# From the text: as §2
# rice = assay: Test B flooded paddy test; format: in vivo, Oryza sativa; conditions: 125 g ai/ha, applied to paddy water at 2-leaf stage, visual rating after 13 to 15 d, scale 0 (no effect) to 100 (complete control)
# From the text: as §2
Structure (SMILES),"Plant response rating, Foxtail, Giant (foxtail, giant [1]; 125 g ai/ha)","Plant response rating, Foxtail, Giant (foxtail, giant [1]; 500 g ai/ha, approx. 10 d)","Plant response rating, Pigweed (pigweed [2]; 125 g ai/ha)","Plant response rating, Pigweed (pigweed [2]; 500 g ai/ha, approx. 10 d)","Plant response rating, Barnyardgrass (barnyardgrass [3]; 125 g ai/ha)","Plant response rating, Barnyardgrass (barnyardgrass [3]; 500 g ai/ha, approx. 10 d)","Plant response rating, Foxtail, Giant (foxtail, giant [4]; 125 g ai/ha)","Plant response rating, Foxtail, Giant (foxtail, giant [4]; 500 g ai/ha)","Plant response rating, Corn (corn [5]; 125 g ai/ha)","Plant response rating, Corn (corn [5]; 500 g ai/ha)","Plant response rating, Wheat (wheat [6]; 125 g ai/ha)","Plant response rating, Wheat (wheat [6]; 500 g ai/ha)","Plant response rating, Barnyardgrass, Flood (barnyardgrass [7])","Plant response rating, Ducksalad, Flood (ducksalad)","Plant response rating, Barnyardgrass (barnyardgrass [8]; 125 g ai/ha)","Plant response rating, Barnyardgrass (barnyardgrass [8]; 500 g ai/ha)","Plant response rating, Morningglory (morningglory [9]; 125 g ai/ha)","Plant response rating, Morningglory (morningglory [9]; 500 g ai/ha, approx. 10 d)","Plant response rating, Crabgrass, Large (crabgrass, large [10]; 125 g ai/ha)","Plant response rating, Crabgrass, Large (crabgrass, large [10]; 500 g ai/ha)",further results
CCCn1nc(-c2ccc(F)cc2)nc1C(O)c1ccnc(C(F)(F)F)c1 (stereo not drawn) [Compound 16],50,90,80,100,0,80,30,70,10,50,10,30,0,0,0,70,0,20,20,70,"Plant response rating, Wheat (wheat [11]; 125 g ai/ha): 0; Plant response rating, Wheat (wheat [11]; 500 g ai/ha, approx. 10 d): 0; Plant response rating, Morningglory (morningglory [12]; 125 g ai/ha): 40; Plant response rating, Morningglory (morningglory [12]; 500 g ai/ha): 40; Plant response rating, Crabgrass, Large (crabgrass, large [13]; 125 g ai/ha): 60; Plant response rating, Crabgrass, Large (crabgrass, large [13]; 500 g ai/ha, approx. 10 d): 100; Plant response rating, Pigweed (pigweed [14]; 125 g ai/ha): 100; Plant response rating, Pigweed (pigweed [14]; 500 g ai/ha): 100; Plant response rating, Corn (corn [15]; 125 g ai/ha): 0; Plant response rating, Corn (corn [15]; 500 g ai/ha, approx. 10 d): 0; Plant response rating, Velvetleaf (velvetleaf [16]; 125 g ai/ha): 0; Plant response rating, Velvetleaf (velvetleaf [16]; 500 g ai/ha): 40; Plant response rating, Velvetleaf (velvetleaf [17]; 125 g ai/ha): 0; Plant response rating, Velvetleaf (velvetleaf [17]; 500 g ai/ha, approx. 10 d): 20; Plant response rating, Sedge, Umbrella, Flood (sedge, umbrella): 0; Plant response rating, Rice, Flood (rice): 0"
Cn1nc(-c2ccc(F)cc2)nc1Cc1ccnc(C(F)(F)F)c1 [Compound 13],100,100,100,100,30,100,80,90,30,60,30,40,0,65,50,90,60,70,70,90,"Plant response rating, Wheat (wheat [11]; 125 g ai/ha): 0; Plant response rating, Wheat (wheat [11]; 500 g ai/ha, approx. 10 d): 0; Plant response rating, Morningglory (morningglory [12]; 125 g ai/ha): 70; Plant response rating, Morningglory (morningglory [12]; 500 g ai/ha): 100; Plant response rating, Crabgrass, Large (crabgrass, large [13]; 125 g ai/ha): 100; Plant response rating, Crabgrass, Large (crabgrass, large [13]; 500 g ai/ha, approx. 10 d): 100; Plant response rating, Pigweed (pigweed [14]; 125 g ai/ha): 100; Plant response rating, Pigweed (pigweed [14]; 500 g ai/ha): 100; Plant response rating, Corn (corn [15]; 125 g ai/ha): 0; Plant response rating, Corn (corn [15]; 500 g ai/ha, approx. 10 d): 10; Plant response rating, Velvetleaf (velvetleaf [16]; 125 g ai/ha): 70; Plant response rating, Velvetleaf (velvetleaf [16]; 500 g ai/ha): 90; Plant response rating, Velvetleaf (velvetleaf [17]; 125 g ai/ha): 20; Plant response rating, Velvetleaf (velvetleaf [17]; 500 g ai/ha, approx. 10 d): 80; Plant response rating, Sedge, Umbrella, Flood (sedge, umbrella): 80; Plant response rating, Rice, Flood (rice): 0"
